Test results published in the NIST ThermoML archive (doi:10.1016/j.jct.2014.04.016).

Conditions: for electrical conductivity / viscosity / mass density: 101.33 kPa, Liquid; for electrical conductivity: Alternating current cell with electrodes; for viscosity: Concentric cylinders viscometry; for mass density: Vibrating tube method

CCCCCCCCOS(=O)(=O)[O-].CCn1cc[n+](C)c1 [1-ethyl-3-methylimidazolium octyl sulfate]
Conditions | electrical conductivity [S/m] | mass density [kg/m3] | viscosity [mPa·s]
258.1 K | 0.002 | – | –
263.1 K | 0.003 | – | –
268.1 K | 0.005 | – | –
273.1 K | 0.008 | 1110.8 | 4561
278.1 K | 0.012 | 1107.4 | 2822
283.1 K | 0.017 | 1103.9 | 1815
288.1 K | 0.025 | 1100.5 | 1207
293.1 K | 0.034 | 1097.1 | 826.7
298.1 K | 0.046 | 1093.7 | 581
303.1 K | 0.06 | 1090.2 | 421.7
308.1 K | 0.078 | 1086.9 | 311.7
313.1 K | 0.098 | 1083.6 | 233.3
318.1 K | 0.124 | 1080.3 | 179.1
323.1 K | 0.153 | 1077.1 | 139.8
328.1 K | 0.193 | 1073.9 | 110.9
333.1 K | 0.232 | 1070.7 | 89.14
338.1 K | 0.279 | 1067.5 | 72.56
343.1 K | 0.329 | 1064.4 | 59.81
348.1 K | 0.385 | 1061.2 | 49.83
353.1 K | 0.447 | 1058.1 | 41.94
358.1 K | 0.514 | 1054.9 | 35.63
363.1 K | 0.584 | 1051.8 | 30.53
368.1 K | 0.661 | 1048.8 | 26.36
373.1 K | 0.731 | 1045.7 | 22.92

Conditions | Normal melting temperature [°C]
Crystal, visual observation | 10
